Structures can show the parent of a compound that is named as a salt.
Columns and labels:
Type in all cases: cell-based
adenosine 3 receptor = molecular target: T1, adenosine 3 receptor (Homo sapiens, UniProt P0DMS8); assay: Agonist activity against adenosine 3 receptor (CHO cells, forskolin-enhanced cAMP/SPAP reporter); details: CHO cells transfected with human receptor; forskolin-enhanced cAMP via SPAP; mean of all the versions tested
T1 sequence (P0DMS8 1-318): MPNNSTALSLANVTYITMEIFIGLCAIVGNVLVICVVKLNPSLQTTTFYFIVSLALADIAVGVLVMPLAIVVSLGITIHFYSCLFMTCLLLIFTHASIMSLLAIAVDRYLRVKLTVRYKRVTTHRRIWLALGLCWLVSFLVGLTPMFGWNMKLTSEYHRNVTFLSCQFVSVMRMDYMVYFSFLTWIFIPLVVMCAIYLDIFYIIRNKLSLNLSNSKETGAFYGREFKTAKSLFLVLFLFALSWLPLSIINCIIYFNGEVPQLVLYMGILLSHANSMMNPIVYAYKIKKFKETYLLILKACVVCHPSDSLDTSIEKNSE
Procedure: (§1) (1) Agonist activity against adenosine 2a, adenosine 1 and adenosine 3 receptor subtypes.
(§2) The effect of test compounds was determined by their effects on basal levels of cAMP (A2a) or on forskolin-enhanced cAMP (A1 and A3) as reflected by changes in levels of SPAP.

adenosine 2a receptor = adenosine 2a receptor (Homo sapiens, UniProt P29274); assay: Agonist activity against adenosine 2a receptor (CHO cells, cAMP/SPAP reporter); details: CHO cells transfected with human receptor; basal cAMP via SPAP; mean of all the versions tested
adenosine 2a receptor, sequence (P29274 whole entry): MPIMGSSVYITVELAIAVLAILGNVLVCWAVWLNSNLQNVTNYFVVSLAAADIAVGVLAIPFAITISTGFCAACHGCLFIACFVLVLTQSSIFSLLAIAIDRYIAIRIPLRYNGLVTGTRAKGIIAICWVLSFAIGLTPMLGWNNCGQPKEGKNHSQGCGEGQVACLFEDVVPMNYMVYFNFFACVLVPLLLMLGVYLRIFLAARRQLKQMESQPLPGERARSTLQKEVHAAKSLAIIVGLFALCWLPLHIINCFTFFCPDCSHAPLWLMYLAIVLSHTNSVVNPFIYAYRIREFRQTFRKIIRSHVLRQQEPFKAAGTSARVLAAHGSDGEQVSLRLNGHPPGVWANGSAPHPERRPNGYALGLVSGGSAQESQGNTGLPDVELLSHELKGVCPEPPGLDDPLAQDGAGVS
Procedure: as §1, §2

adenosine 1 receptor = molecular target: T2, adenosine 1 receptor (Homo sapiens, UniProt P30542); assay: Agonist activity against adenosine 1 receptor (CHO cells, forskolin-enhanced cAMP/SPAP reporter); details: CHO cells transfected with human receptor; forskolin-enhanced cAMP via SPAP; mean of all the versions tested
T2 sequence (P30542 1-326): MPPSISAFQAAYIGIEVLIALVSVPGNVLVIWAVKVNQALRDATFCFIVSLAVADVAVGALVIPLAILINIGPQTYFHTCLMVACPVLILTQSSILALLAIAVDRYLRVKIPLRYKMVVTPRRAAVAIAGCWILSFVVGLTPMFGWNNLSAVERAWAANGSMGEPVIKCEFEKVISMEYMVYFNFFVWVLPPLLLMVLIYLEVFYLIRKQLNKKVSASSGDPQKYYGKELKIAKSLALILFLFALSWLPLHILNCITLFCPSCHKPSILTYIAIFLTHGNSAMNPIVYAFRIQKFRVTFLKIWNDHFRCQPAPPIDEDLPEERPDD
Procedure: as §1, §2

CCn1nnc([C@H]2O[C@@H](n3cnc4c(N)nc(NCCc5ccc(O)cc5)nc43)[C@H](O)[C@@H]2O)n1.O=CO [Example 16, (2R,3R,4S,5R)-2-{6-Amino-2-[2-(4-hydroxy-phenyl)-ethylamino]-purin-9-yl}-5-(2-ethyl-2H-tetrazol-5-yl)-tetrahydro-furan-3,4-diol Formate]
A3 EC50 as a ratio of that of NECA (adenosine 3 receptor): >209
A2a EC50 as a ratio of that of NECA (adenosine 2a receptor): 0.3
A1 EC50 as a ratio of that of NECA (adenosine 1 receptor): 516.4

CCn1nnc([C@H]2O[C@@H](n3cnc4c(N)nc(NCCc5ccc(OC)cc5)nc43)[C@H](O)[C@@H]2O)n1.O=CO [Example 18, (2R,3R,4S,5R)-2-{6-Amino-2-[2-(4-methoxy-phenyl)-ethylamino]-purin-9-yl}-5-(2-ethyl-2H-tetrazol-5-yl)-tetrahydro-furan-3,4-diol Formate]
A3 EC50 as a ratio of that of NECA (adenosine 3 receptor): >223
A2a EC50 as a ratio of that of NECA (adenosine 2a receptor): 0.36
A1 EC50 as a ratio of that of NECA (adenosine 1 receptor): 136.7

CCn1nnc(C2OC(n3cnc4c(NC(CO)Cc5ccccc5)nc(NCCN5CCCCC5)nc43)C(O)C2O)n1 (stereo not drawn) [Example 103]
A3 EC50 as a ratio of that of NECA (adenosine 3 receptor): >184
A2a EC50 as a ratio of that of NECA (adenosine 2a receptor): 3.91
A1 EC50 as a ratio of that of NECA (adenosine 1 receptor): 48.50

CCn1nnc(C2OC(n3cnc4c(NCCc5ccccc5)nc(NCCN5CCCCC5)nc43)C(O)C2O)n1.O=CO.O=CO [Example 102, (2R,3S,4R,5R)-2-(2-Ethyl-2H-tetrazol-5-yl)-5-[6-phenethylamino-2-(2-piperidin-1-yl-ethylamino)-purin-9-yl]-tetrahydro-furan-3,4-diol Diformate]
A3 EC50 as a ratio of that of NECA (adenosine 3 receptor): >195
A2a EC50 as a ratio of that of NECA (adenosine 2a receptor): 6.36
A1 EC50 as a ratio of that of NECA (adenosine 1 receptor): 321.00

CCn1nnc([C@H]2O[C@@H](n3cnc4c(NCC(c5ccccc5)c5ccccc5)nc(NC5CCNC5)nc43)[C@H](O)[C@@H]2O)n1.O=C(O)C(F)(F)F.O=C(O)C(F)(F)F.O=C(O)C(F)(F)F (stereo partly drawn) [Example 2, (2R,3R,4S,5R)-2-[6-(2,2-Diphenyl-ethylamino)-2-(pyrrolidin-3-ylamino)-purin-9-yl]-5-(2-ethyl-2H-tetrazol-5-yl)-tetrahydro-furan-3,4-diol tris(Trifluoroacetate)]
A3 EC50 as a ratio of that of NECA (adenosine 3 receptor): >216
A2a EC50 as a ratio of that of NECA (adenosine 2a receptor): 0.92
A1 EC50 as a ratio of that of NECA (adenosine 1 receptor): 123.6

CCC(CC)Nc1nc(NCCc2ccccn2)nc2c1ncn2C1OC(c2nnn(C)n2)C(O)C1O.O=CO.O=CO [Example 89, (2R,3R,4S,5R)-2-[6-(1-Ethyl-propylamino)-2-(2-pyridin-2-yl-ethylamino)-purin-9-yl]-5-(2-methyl-2H-tetrazol-5-yl)-tetrahydro-furan-3,4-diol Diformate]
A3 EC50 as a ratio of that of NECA (adenosine 3 receptor): >243
A2a EC50 as a ratio of that of NECA (adenosine 2a receptor): 2.22
A1 EC50 as a ratio of that of NECA (adenosine 1 receptor): >9363.00

CCn1nnc(C2OC(n3cnc4c(NCCN5CCCCC5)nc(NC(CO)Cc5ccccc5)nc43)C(O)C2O)n1 [Example 69, (2R,3S,4R,5R)-2-(2-Ethyl-2H-tetrazol-5-yl)-5-[2-(1S-hydroxymethyl-2-phenyl-ethylamino)-6-(2-piperidin-1-yl-ethylamino)-purin-9-yl]-tetrahydro-furan-3,4-diol Formate]
A3 EC50 as a ratio of that of NECA (adenosine 3 receptor): >148
A2a EC50 as a ratio of that of NECA (adenosine 2a receptor): 6.60
A1 EC50 as a ratio of that of NECA (adenosine 1 receptor): 515.30

CCn1nnc([C@H]2O[C@@H](n3cnc4c(NCCc5ccccc5)nc(NCCc5cn(C)cn5)nc43)[C@H](O)[C@@H]2O)n1.Cl.Cl [Example 4, (2R,3S,4R,5R)-2-(2-Ethyl-2H-tetrazol-5-yl)-5-{2-[2-(1-methyl-1H-imidazol-4-yl)-ethylamino]-6-phenethylamino-purin-9-yl}-tetrahydro-furan-3,4-diol Dihydrochloride]
A3 EC50 as a ratio of that of NECA (adenosine 3 receptor): >244
A2a EC50 as a ratio of that of NECA (adenosine 2a receptor): 0.149
A1 EC50 as a ratio of that of NECA (adenosine 1 receptor): 205.4
